Measured values from patent US20070066566A1, “19,23,24,25,26,27-Hexanor-1alpha-hydroxyvitamin D3” (Wisconsin Alumni Research Foundation, priority 2005, published 2007).

How the values were obtained:
Sprague-Dawley rats [1] = experiment: Intestinal calcium transport (everted gut sac method); assay type: in vivo, rat; details: four consecutive ip doses, FIG. 4A
From the text: (§1) FIGS. 4A and 4B are graphs comparing intestinal calcium transport (4A) and bone calcium mobilization (4B) of NP9 and 1,25(OH)2D3.
(§2) Male, weanling Sprague-Dawley rats were placed on Diet 11 (Suda et al. J. Nutr. 100:1049, 1970) (0.47% Ca) diet+vitamins AEK for one week followed by Diet 11 (0.02% Ca)+AEK for 3 weeks. The rats were then switched to a diet containing 0.47% Ca for one week followed by two weeks on a diet containing 0.02% Ca. Dose administration began during the last week on 0.02% calcium diet. Four consecutive ip doses were given approximately 24 hours apart. Twenty-four hours after the last dose, blood was collected from the severed neck and the concentration of serum calcium was determined as a measure of bone calcium mobilization. The first 10 cm of the intestine was also collected for intestinal calcium transport analysis using the everted gut sac method. Antagonism was tested by administering a combination of 1,25(OH)2D3 and the compound to the animal simultaneously.

[2] = tested on: 24-hydroxylase (24Ohase) gene promoter; experiment: In vitro transcription assay (luciferase reporter in ROS 17/2.8 cells); assay type: cell-based; details: 24Ohase promoter-luciferase, FIG. 3
Method: FIG. 3 is a graph comparing the in vitro transcription activity of NP9 with that of 1,25(OH)2D3.
Transcription activity was measured in ROS 17/2.8 (bone) cells that were stably transfected with a 24-hydroxylase (24Ohase) gene promoter upstream of a luciferase reporter gene (Arbour et al., 1998). Cells were given a range of doses. Sixteen hours after dosing the cells were harvested and luciferase activities were measured using a luminometer. RLU=relative luciferase units.
Antagonism was tested by adding a combination of 1,25(OH)2D3 and the compound in the same well keeping the final ethanol concentration the same.

[3] = biological target: T1, full-length recombinant rat vitamin D receptor (Rattus norvegicus, UniProt P13053); experiment: Vitamin D receptor binding, competition with [3H]-1,25-(OH)2-D3; details: FIG. 1
T1 construct: Full-length recombinant rat receptor was expressed in E. coli BL21(DE3) Codon Plus RIL cells; His tag (C); made in house; host or cells: E. coli BL21(DE3) Codon Plus RIL
T1 sequence (P13053 1-423): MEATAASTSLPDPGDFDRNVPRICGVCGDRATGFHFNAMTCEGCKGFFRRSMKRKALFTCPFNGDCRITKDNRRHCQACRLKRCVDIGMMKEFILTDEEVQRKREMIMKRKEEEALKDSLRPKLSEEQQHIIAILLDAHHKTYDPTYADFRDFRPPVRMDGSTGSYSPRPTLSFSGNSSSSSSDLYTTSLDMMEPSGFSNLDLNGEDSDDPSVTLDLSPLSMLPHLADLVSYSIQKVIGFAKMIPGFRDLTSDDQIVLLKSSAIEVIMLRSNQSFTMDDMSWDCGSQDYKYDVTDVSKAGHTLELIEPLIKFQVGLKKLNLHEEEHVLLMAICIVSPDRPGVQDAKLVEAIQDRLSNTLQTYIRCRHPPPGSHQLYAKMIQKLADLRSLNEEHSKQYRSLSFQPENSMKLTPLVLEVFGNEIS
From the text: FIG. 1 is a graph comparing the relative activity of NP9 and 1,25(OH)2D3 to compete for binding with [^3H]-1,25-(OH)2-D3 to the full-length recombinant rat vitamin D receptor.
Full-length recombinant rat receptor was expressed in E. coli BL21(DE3) Codon Plus RIL cells and purified to homogeneity using two different column chromatography systems. The first system was a nickel affinity resin that utilizes the C-terminal histidine tag on this protein. The protein that eluted from this resin was further purified using ion exchange chromatography (S-Sepharose Fast Flow). Aliquots of the purified protein were quick frozen in liquid nitrogen and stored at −80° C. until use. For use in binding assays, the protein was diluted in TEDK50 (50 mM Tris, 1.5 mM EDTA, pH 7.4, 5 mM DTT, 150 mM KCl) with 0.1% Chaps detergent. […]
Unlabeled ligands were dissolved in ethanol and the concentrations were determined using UV spectrophotometry (1,25(OH)2D3: molar extinction coefficient=18,200 and λmax=265 nm). […]
Radiolabeled and unlabeled ligands were added to 100 mcl of the diluted protein at a final ethanol concentration of ≧10%, mixed and incubated overnight on ice to reach binding equilibrium. […] Total binding was determined from the tubes containing only radiolabeled ligand.

[4] = tested on: Human promyelocytic leukemia (HL60) cells; experiment: HL-60 differentiation (nitro blue tetrazolium reduction); assay type: cell-based; details: FIG. 2
Method: FIG. 2 is a graph comparing the percent HL-60 cell differentiation as a function of the concentration of NP9 with that of 1,25(OH)2D3.
The study drugs were dissolved in ethanol and the concentrations determined using UV spectrophotometry. Serial dilutions were prepared so that a range of drug concentrations was tested without changing the final concentration of ethanol (≦0.2%) present in the cell cultures.
Human promyelocytic leukemia (HL60) cells were grown in RPMI-1640 medium containing 10% fetal bovine serum. The cells were incubated at 37° C. in the presence of 5% CO2.
HL60 cells were plated at 1.2×10^5 cells/mL. Eighteen hours after plating, cells in duplicate were treated with drug. Four days later, the cells were harvested and a nitro blue tetrazolium reduction assay was performed (Collins et al., 1979; J. Exp. Med. 149:969-974). The percentage of differentiated cells was determined by counting a total of 200 cells and recording the number that contain intracellular black-blue formazan deposits. Verification of differentiation to monocytic cells was determined by measuring phagocytic activity.

Sprague-Dawley rats [5] = experiment: Bone calcium mobilization (serum calcium); assay type: in vivo, rat; details: four consecutive ip doses, FIG. 4B
From the text: as §1, §2

## CC(C)[C@H]1CC[C@H]2/C(=C/C=C3C[C@@H](O)C[C@H](O)C3)CCC[C@]12C [formula 1B, 19,23,24,25,26,27-Hexanor-1α-hydroxyvitamin D3]
Sprague-Dawley rats [1]
  intestinal calcium transport activity: no measurable
[2]
  activity in causing transcription compared to 1,25-(OH)2D3: does not show as much activity in causing transcription as 1,25-(OH)2D3
[3]
  binding to the vitamin D receptor relative to 1,25-(OH)2D3: does not bind to the vitamin D receptor as strongly as the native hormone 1,25-(OH)2D3
[4]
  activity in inducing differentiation of HL-60 cells compared to 1,25-(OH)2D3: less but still significant activity compared to 1,25-(OH)2D3
Sprague-Dawley rats [5]
  bone calcium mobilizing activity: no measurable bone calcium mobilizing activity
